Source: paper PMC12349723, “Computationally accelerated identification of P-glycoprotein inhibitors” (PLOS One, 2025)

Assays:
[1] = SWISS-ADME computational analysis of chemical properties; conditions: predicted aqueous solubility compared to that observed in the laboratory
Text: Identifying P-gp inhibitors that are not transport substrates remains inherently challenging. To that end, computational tools such as the SWISS-ADME server attempt to use a molecule’s unique chemical and structural characteristics to predict whether it is likely to be a P-gp transport substrate. Our LC-MS/MS assays allowed us to retroactively test the validity of predictions from SWISS-ADME. […] Alternative identifiers for the molecules identified in this study are shown in S7 Table.
S1 Table. Known P-gp Inhibitors and Predicted Chemical Properties. A non-exhaustive list of known P-gp inhibitors and their selected chemical properties ^[64, 65]. Clinical trial outcomes were adapted from ^[10, 11]. Compounds were evaluated using the SWISS-ADME server ^[54]. […] “Predicted P-gp Substrate” - predicted by SWISS-ADME to be a transport substrate of P-gp. “Known P-gp Substrate” – In addition to being P-gp inhibitors, these molecules are: known transport substrates of P-gp, known non-transport substrates of P-gp, unknown whether it is a transport substrate of P-gp ^[66-68]. If the molecule is designated in a specific generation of P-gp inhibitors - First Generation P-gp inhibitors, Second generation P-gp inhibitors, Third generation P-gp inhibitors.

P-gp [2] = target: T1, P-gp (Homo sapiens, UniProt P08183); assay: Top Hit classification from combined in vitro criteria; conditions: reverse MDR, do not increase PTX toxicity in chemo-sensitive cancer cells, non-toxic to noncancerous cells, not P-gp substrates
T1 construct: The MDR, P-gp overexpressing DU145-TXR cells were maintained under positive selection pressure; endogenous in cells; host or cells: DU145-TXR (paclitaxel-resistant sub-line of DU145 human prostate cancer cells)

[3] = Resazurin cell viability pre-screen in DU145-TXR cells with or without PTX; type: cell-based; conditions: human, mean of two experiments in triplicate, read-out: Viability, 15 µM compound alone
Experimental: Culture of the DU145, DU145-TXR, and HFL1 cell lines was performed as described in [8]. Culture of the A2780 and A2780-ADR cell lines was performed as described in [9]. MTT assays were performed as described in [8] with minor modifications. LC-MS/MS accumulation assays were performed as described in {Nanayakkara, 2018 #173} [9] with some modifications. […] The inhibitor concentration was lowered to 15 µM here, as the goal of the study was to identify compounds that were effective in reversing MDR at low concentrations, and to determine if the expanded virtual-assisted methods improved on our first-draft attempt. Compounds 56–98 were pre-screened using Resazurin cell viability assays: cells were incubated with 15 µM compound with or without 500 nM PTX for 48 hours, after which cell survival was assessed similar to [39]. Data represent the mean of two separate experiments, with n = 3 samples per experiment (n = 6 total) (S4 Table). The top performing compounds from this initial screen were re-tested with MTT viability assays against DU145-TXR cells, as described below.
S4 Table. Pre-screening of compounds 56 – 98 against DU145-TXR cells with resazurin assays. DU145-TXR cells were incubated with 15 µM compound with or without 500nM PTX for 48 hrs; survival was subsequently determined with the Resazurin viability assay ^[37]. […] Percent re-sensitization is defined as the percent change in viability between cells treated with compound and PTX, versus cells treated with PTX alone. In some instances, the assay reported an increase in viability with compound + PTX, and no percent sensitization is reported. ‘Follow-up Testing’ compounds were re-assessed with MTT assays (Figure 1). Compounds 59 and 89 (*, ‘Follow-up Testing’) were used as negative controls in follow-up MTT assays to test for consistency of results, e.g. to confirm that molecules eliminated in Resazurin assays were justifiably eliminated from later screening with MTT assays.

P-gp [4] = target: T1, P-gp; assay: LC-MS/MS intracellular accumulation assay with or without tariquidar (P-gp transport substrate test) in DU145-TXR cells; type: in vitro ADME
Experimental: DU145-TXR cells were seeded at 350,000 cells per well in 6-well plates in complete RPMI medium. […] A full sample of DAU was also prepared for quantitative analysis. […] Media was removed with a glass vacuum aspirator. Cells were re-suspended and washed in 2mL of ice-cold Hank’s Balanced Salt Solution (HBSS, Gibco), and spun again at 2400 rpm. Cell lysates were diluted in 600 µL of ice-cold HBSS, flash-frozen in liquid nitrogen, and stored at −80 °C until analysis. LC-MS/MS intracellular accumulation assays were performed in collaboration with the Pharmacology Core at the University of Texas Southwestern Medical Center (UTSW). […] This method allowed us to quantify the change – if any – in the relative amount of compound present in the samples when TQR was added. An increase in the relative amount of compound indicates enhanced intracellular retention that compound. […] The “Internal Standard” (IS) is a known substance added in a constant amount to each sample. The “Peak Area”, expressed as “counts”, describes the number of MS/MS spectra from the experimental compound and serves as a measure of its relative abundance. […] These values allow a comparison of the relative abundance of compound between the “- TQR” and “+ TQR” samples, and to test for statistically significant differences. LC-MS/MS quantification was performed as follows. Cell lysate was aliquoted into Eppendorf tubes. In contrast to [9], blank cell lysates were not spiked with varying concentrations of each compound to create a standard curve, since compound amounts were normalized to abundance of the internal standard. […] The supernatant was then transferred to an HPCL vial, and subsequently analyzed using LC-MS/MS using a Sciex 4000QTRAP mass spectrometer coupled to a Shimadzu Prominence LC. […] The column flow rate was 1.5 ml/min using an Agilent C18 XDB, 5 micron packing 50 × 4.6 mm column. […] A BSA standard curve was then prepared in water and mixed using the same ratio. […] The ratio of Analyte to Internal Standard was normalized to the lysate content for each individual sample. […] Statistical significance was determined using a Student’s T Test in GraphPad Prism. We aimed to identify P-gp inhibitors that are not transport substrates of the pump itself. […] To test these predictions in vitro, liquid chromatography with tandem mass spectrometry (LC-MS/MS) was used to assess the intracellular accumulation of experimental compounds as described in [9]. […] The relative intracellular accumulation of each experimental compound was then assessed using LC-MS/MS. […] The P-gp substrate and chemotherapeutic daunorubicin (DAU) was used as a positive control for P-gp-mediated transport.

[5] = system: HFL1 (human lung fibroblast) cell line; assay: MTT viability assay, inherent toxicity in non-cancerous HFL1 cells; type: cell-based; conditions: HFL1 cells, compound alone, mean of 8 samples
Experimental: The chemotherapeutic sensitive DU145 human prostate cancer cells and the multidrug resistant sub-line, DU145-TXR, were generous gifts from Dr. Evan Keller (University of Michigan, Ann Arbor, MI). The MDR, P-gp overexpressing DU145-TXR cells were maintained under positive selection pressure by supplementing complete medium with 10 nM paclitaxel (Acros Organics, NJ). […] The MDR, P-gp overexpressing A2780-ADR cell line was maintained under positive selection pressure by supplementing complete medium with 100 nM doxorubicin (Fisher Scientific, NJ). The non-cancerous HFL1 (human lung fibroblast) cell line cell line was a generous gift from Dr. Robert Harrod (Southern Methodist University, Dallas, TX) and was maintained in complete F12K media consisting of F12K with 10% fetal bovine serum, 100 U/mL penicillin, and 100 µg/mL streptomycin (Gibco). Flasks and 96 well plates that were used with the non-cancerous line HFL1 were pre-treated with 0.1 mg/ml Collagen Type 1 (Gibco) and rinsed with PBS (Fisher).
MTT assays measure the reduction of yellow, water soluble 3-(4,5-dimethylthiazol-2-yl)-2,5-diphenyltetrazolium bromide (MTT) to blue, insoluble formazan crystals by cellular reductase processes in living cells. Cells were trypsinized from monolayers and seeded in complete medium in 96 well plates. Cancerous cell lines (DU145, DU145-TXR, A2780, A2780-ADR) were seeded at 3,000 cells per well in complete RPMI medium. The non-cancerous HFL1 line was seeded at 4,000 cells per well in complete F12K medium, in collagen-treated plates (Collagen Type 1, Gibco). Cells were incubated with experimental compounds for 48 hours at 37 °C and 5% CO2 in a humidified incubator. At 48 hours, MTT was added (20 µL/well of 5 mg/mL MTT in PBS) to each well. After incubation for 4 hours, the media was removed, and the formazan crystals were dissolved in 100 µL DMSO per well. Plates containing the semi-adherent A2780 or A2780-ADR lines were spun at 1400 rpm for 3 minutes prior to aspiration of media, and the addition of DMSO. Plates were shaken for 10 minutes at 500 rpm on an Orbital shaker (LabDoctor from MidSci, St Louis, MO). The absorbance was measured at 570 nm using a Bio-Tek Cytation 5 (Bio-Tek, Winooski, VT). The measured absorbance value was correlated with the number of metabolically active cells in that well, corrected for absorbance of media. The percent of cell viability (termed ‘survival’ here) was calculated as a percentage of survival of the control condition, which refers to vehicle-treated (DMSO as vehicle) cells, or vehicle-and-chemotherapeutic-treated cells, if testing a compound’s ability to re-sensitize cells to a chemotherapeutic. Percent survival was calculated using the following equation:
% Survival=100 × absorbance of experimental cells/mean absorbance of control treated cells
For DU145-TXR, DU145, HFL1 and A2780 cells – data are the mean ± one standard deviation, 8 samples per compound, from at least two independent trials per compound. […] For A2780-ADR cells, data are the mean ± one standard deviation with 12 samples per compound, from at least two independent trials per compound.
If a P-gp inhibitor is intrinsically toxic to non-cancerous cells, it is more likely to be participating in undesirable off-target interactions. The top compounds from the screens shown above were screened for inherent toxicity using the non-cancerous HFL1 (human lung fibroblast) cell line. HFL1 cells were incubated with 15 µM compound for 48 hours, after which cell viability was assessed using MTT cell viability assays. A 20% reduction in cell viability (compared to DMSO-treated cells) was considered the maximum acceptable toxicity (see dotted line). The chemotherapeutic daunorubicin was included as a positive control for toxicity.
The top compounds from previous screens were tested against the non-cancerous HFL1 cell line.

DU145 cells = system: DU145 cells; design: method as in PMID 26516582; conditions: ref [8]; cited from earlier work
DU145-TXR cells = conditions: cited from earlier work
P-gp [6] = system: P-gp; design: method as in earlier work; conditions: ref [66-68]; cited from earlier work
[7] = DU145-TXR, 5 µM compound, 2.5 h, with 500 nM tariquidar, mean ± SD, triplicate
[8] = DU145-TXR, 5 µM compound, 2.5 h, without tariquidar, mean ± SD, triplicate
[9] = significant difference = likely P-gp transport substrate

T1 sequence (P08183 whole entry): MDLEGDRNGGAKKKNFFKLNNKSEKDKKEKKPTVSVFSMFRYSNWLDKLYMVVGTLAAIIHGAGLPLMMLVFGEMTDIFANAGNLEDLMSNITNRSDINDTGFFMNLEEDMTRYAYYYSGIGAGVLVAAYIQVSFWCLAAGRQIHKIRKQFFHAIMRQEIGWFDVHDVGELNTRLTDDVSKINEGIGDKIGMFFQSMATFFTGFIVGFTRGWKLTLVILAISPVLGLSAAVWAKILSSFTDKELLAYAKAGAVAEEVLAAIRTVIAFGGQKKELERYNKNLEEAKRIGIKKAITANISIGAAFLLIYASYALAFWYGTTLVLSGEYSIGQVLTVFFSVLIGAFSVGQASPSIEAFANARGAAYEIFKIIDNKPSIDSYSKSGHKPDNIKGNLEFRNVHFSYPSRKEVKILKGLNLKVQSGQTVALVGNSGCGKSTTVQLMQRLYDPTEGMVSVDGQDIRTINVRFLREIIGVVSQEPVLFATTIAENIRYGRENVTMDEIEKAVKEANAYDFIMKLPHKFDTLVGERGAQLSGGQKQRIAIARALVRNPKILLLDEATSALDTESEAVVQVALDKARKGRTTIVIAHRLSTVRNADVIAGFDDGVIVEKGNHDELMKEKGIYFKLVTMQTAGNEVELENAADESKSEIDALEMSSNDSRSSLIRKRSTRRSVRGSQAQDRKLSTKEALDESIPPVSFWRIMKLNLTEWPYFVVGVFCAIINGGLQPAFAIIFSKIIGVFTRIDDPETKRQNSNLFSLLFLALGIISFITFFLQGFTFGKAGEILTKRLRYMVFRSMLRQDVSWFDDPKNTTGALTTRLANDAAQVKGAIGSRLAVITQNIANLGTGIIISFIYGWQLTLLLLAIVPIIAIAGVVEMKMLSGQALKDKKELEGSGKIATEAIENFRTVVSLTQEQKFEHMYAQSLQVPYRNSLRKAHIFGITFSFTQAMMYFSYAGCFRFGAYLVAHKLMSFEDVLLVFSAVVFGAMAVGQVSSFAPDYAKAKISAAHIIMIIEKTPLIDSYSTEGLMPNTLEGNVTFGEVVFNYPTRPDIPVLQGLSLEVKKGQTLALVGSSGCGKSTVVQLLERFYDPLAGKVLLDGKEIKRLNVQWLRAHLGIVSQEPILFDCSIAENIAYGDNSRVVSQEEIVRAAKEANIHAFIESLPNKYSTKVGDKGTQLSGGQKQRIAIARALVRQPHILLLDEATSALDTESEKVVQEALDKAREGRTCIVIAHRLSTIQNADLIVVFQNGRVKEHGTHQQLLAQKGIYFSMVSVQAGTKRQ

Structure (SMILES): Cc1cccc(C2CC(=O)c3cnn(-c4nc5ccccc5[nH]4)c3C2)c1 (stereo not shown) [Compound 79, Cc1cccc(c1)C1Cc2c(cnn2-c2nc3ccccc3[nH]2)C(=O)C1]
- Correct Water Solubility Prediction? [1]: Yes
- Top Hit (P-gp [2]): No
- viability at 48 h, 15 µM [3]: 89.9%

Structure (SMILES): COc1cccc2c1C(=O)c1c(O)c3c(c(O)c1C2=O)C[C@@](O)(C(C)=O)C[C@@H]3O[C@H]1C[C@H](N)[C@H](O)[C@H](C)O1 [Daunorubicin, reference compound]
- Intracellular accumulation (normalized ratio of compound to internal standard), Trial 1, + TQR (P-gp [4]; [7]): 0.216 ± 0.002
- Intracellular accumulation (normalized ratio of compound to internal standard), Trial 2, + TQR (P-gp [4]; [7]): 0.232 ± 0.016
- Intracellular accumulation (normalized ratio of compound to internal standard), Trial 1, - TQR (P-gp [4]; [8]): 0.014 ± 0.001
- Intracellular accumulation (normalized ratio of compound to internal standard), Trial 2, - TQR (P-gp [4]; [8]): 0.017 ± 0.001
- P (- TQR vs + TQR), Trial 2 (P-gp [4]; Student's T test of the mean): 2x10^-5
- P (- TQR vs + TQR), Trial 1 (P-gp [4]; Student's T test of the mean, listed as DAU): < 1x10^-6
- Significance of accumulation with tariquidar, Trial 1 (P-gp [4]; [9]): **** (P < 0.0001 = ****)
- Significance of accumulation with tariquidar, Trial 2 (P-gp [4]; [9]): **** (P < 0.0001 = ****)
- Mean % Survival [5]: 18.1%

Structure (SMILES): CC(=O)O[C@H]1C(=O)[C@@]2(C)[C@H]([C@H](OC(=O)c3ccccc3)[C@]3(O)C[C@H](OC(=O)[C@H](O)[C@@H](NC(=O)c4ccccc4)c4ccccc4)C(C)=C1C3(C)C)[C@]1(OC(C)=O)CO[C@@H]1C[C@@H]2O [Paclitaxel, paclitaxel]
- Survival of DU145 parental cells at 500 nmol/L PTX (DU145 cells): less than 10%
- Survival of DU145-TXR cells at 500 nmol/L PTX (DU145-TXR cells; 500 nmol/L PTX, ref [8]): greater than 85%
- Increase in the IC50 of PTX in DU145-TXR relative to DU145 cells (DU145-TXR cells; DU145-TXR vs DU145 parental cells, ref [38]): 34 fold

Structure (SMILES): C=C[C@H]1C[N@@]2CC[C@H]1C[C@@H]2[C@@H](O)c1ccnc2ccc(OC)cc12 [Quinidine]
- P-gp Substrate? (known transport substrate of P-gp) (P-gp [6]): Yes

Structure (SMILES): COC(=O)[C@H]1[C@H]2C[C@@H]3c4[nH]c5cc(OC)ccc5c4CCN3C[C@H]2C[C@@H](OC(=O)c2cc(OC)c(OC)c(OC)c2)[C@@H]1OC [Reserpine]
- P-gp Substrate? (known transport substrate of P-gp) (P-gp [6]): No

Structure (SMILES): C/C=C/C[C@@H](C)C(=O)[C@H]1C(=O)N[C@@H](C(C)C)C(=O)N(C)CC(=O)N(C)[C@@H](CC(C)C)C(=O)N[C@@H](C(C)C)C(=O)N(C)[C@@H](CC(C)C)C(=O)N[C@@H](C)C(=O)N[C@H](C)C(=O)N(C)[C@@H](CC(C)C)C(=O)N(C)[C@@H](CC(C)C)C(=O)N(C)[C@@H](C(C)C)C(=O)N1C [Valspodar]
- P-gp Substrate? (known transport substrate of P-gp) (P-gp [6]): No

Structure (SMILES): O[C@@H](COc1cccc2ncccc12)CN1CCN([C@@H]2c3ccccc3[C@@H]3[C@H](c4ccccc42)C3(F)F)CC1 [Zosuquidar]
- P-gp Substrate? (known transport substrate of P-gp) (P-gp [6]): Yes
